# Assay results taken from ChEMBL document CHEMBL1833845, “Potent inhibition of bacterial neuraminidase activity by pterocarpans isolated from the roots of Lespedeza bicolor” (Bioorg Med Chem Lett, 2011).
# Legend:
# Sialidase [1] = molecular target: T1, Sialidase (Clostridium perfringens, UniProt P10481)
# T1 sequence (P10481 whole entry): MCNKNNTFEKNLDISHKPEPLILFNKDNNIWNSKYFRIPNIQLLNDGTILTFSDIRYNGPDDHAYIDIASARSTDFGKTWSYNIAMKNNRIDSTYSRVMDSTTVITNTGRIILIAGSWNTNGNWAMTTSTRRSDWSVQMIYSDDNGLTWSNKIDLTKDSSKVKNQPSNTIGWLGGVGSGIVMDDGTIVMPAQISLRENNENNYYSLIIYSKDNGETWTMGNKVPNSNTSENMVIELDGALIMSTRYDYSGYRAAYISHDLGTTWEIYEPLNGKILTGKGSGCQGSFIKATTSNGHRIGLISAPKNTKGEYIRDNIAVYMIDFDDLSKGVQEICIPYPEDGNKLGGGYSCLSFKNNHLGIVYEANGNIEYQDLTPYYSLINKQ
# Sialidase [2] = molecular target: T1, Sialidase; remark: listed apart in the source
SMILES,Ki (Sialidase [1]),IC50 (Sialidase [2])
COc1c(CC=C(C)C)c(O)cc2c1[C@@H]1Oc3c(ccc(O)c3CC=C(C)C)[C@@H]1CO2,0.11 µM,0.09 µM
COc1c(CC=C(C)C)c(O)cc2c1[C@@H]1Oc3c(cc(C)c(O)c3CC=C(C)C)[C@@H]1CO2 [BICOLOSIN A],0.16 µM,0.32 µM
CC(C)=CCC/C(C)=C/Cc1cc2c(cc1O)OC[C@H]1c3cc(C)c(O)c(CC=C(C)C)c3O[C@@H]21 [BICOLOSIN B],1.2 µM,1.06 µM
COc1cc(O)c(C/C=C(\C)CCC=C(C)C)c2c1[C@@H]1Oc3cc(O)ccc3[C@@H]1CO2 [BICOLOSIN C],0.16 µM,0.17 µM
CC(C)=CCc1cc2c(cc1O)OC[C@H]1c3ccc(O)c(CC=C(C)C)c3O[C@@H]21 [ERYBRAEDIN C],2.73 µM,3.35 µM
CC(C)=CCc1cc2c(cc1O)OCC1c3cc(C)c(O)c(CC=C(C)C)c3OC21 (stereo not drawn) [LESPEBUERGINE G4],1.35 µM,1.84 µM
O=c1c(O)c(-c2ccc(O)c(O)c2)oc2cc(O)cc(O)c12 [QUERCETIN],,10.1 µM
